Counter-ions that a name gives are not always drawn.
Experiments:
Cif [1] = biological target: T1, Cif (Pseudomonas aeruginosa (strain UCBPP-PA14), UniProt A0A0H2ZD27); assay: Fluorescent-based Cif inhibitory assay (CMNGC); conditions: for IC50: CMNGC, average of triplicates
Text: Cyano (6-methoxynaphthalen-2-yl) methyl glycidyl carbonate (CMNGC) was used as a fluorescent reporter substrate.
Reported IC50 values are the average of triplicates with at least two data points above and at least two below the IC50.

Cif [2] = biological target: T1, Cif; assay: Primary high throughput screen with fluorogenic substrate CMNGC; assay type: biochemical; conditions: primary screen; test compounds at 10 μM, 1 μM Cif, 25 μM CMNGC, 60 minutes;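 note: fluorescence of 200 µL reactions in 96-well plates read on a plate reader, inhibitor at tenfold molar excess over Cif enzyme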
Experimental: All high throughput screening assays were performed using 96-well plates, a 200 μL reaction volume, and a fluorescent plate reader. […] The fluorescent signal was measured after allowing the enzyme reaction to proceed for 60 minutes.
A library of 1600 FDA-approved compounds was screened for Cif inhibitory activity.
The screen was performed with only a 10-fold stoichiometric excess of inhibitor over Cif enzyme.

Cif [3] = biological target: T1, Cif; assay: Secondary screen (sextuplicate) with fluorogenic substrate CMNGC; assay type: biochemical; conditions: for % Inhibition, Mean ± SD / % Inhibition, plate 1 / % Inhibition, plate 2 / % Inhibition, plate 3 / % Inhibition, plate 4 / % Inhibition, plate 5 / % Inhibition, plate 6: secondary screen, 10 μM; for % Inhibition, Mean ± SD: mean of six plates; for % Inhibition, plate 1: plate number 1; for % Inhibition, plate 2: plate number 2; for % Inhibition, plate 3: plate number 3; for % Inhibition, plate 4: plate number 4; for % Inhibition, plate 5: plate number 5; for % Inhibition, plate 6: plate number 6;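 for all read-outs here: purified enzyme assay in 96-well plates, 200 µL volume, fluorescence recorded each minute across a 60 min reaction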
Experimental: All high throughput screening assays were performed using 96-well plates, a 200 μL reaction volume, and a fluorescent plate reader. […] The fluorescent signal was measured after allowing the enzyme reaction to proceed for 60 minutes. The secondary screen was performed using the same conditions as the primary screen, except that fluorescent readings were taken every minute for the 60-minute reaction.
Subsequently, the filtered primary hits were retested to validate the observed inhibitory effect.

[4] = read-out: % Inhibition, Mean ± SD
[5] = read-out: % Inhibition, plate 1
[6] = read-out: % Inhibition, plate 2
[7] = read-out: % Inhibition, plate 3
[8] = read-out: % Inhibition, plate 4
[9] = read-out: % Inhibition, plate 5
[10] = read-out: % Inhibition, plate 6

T1 sequence (A0A0H2ZD27 25-319 limits assumed): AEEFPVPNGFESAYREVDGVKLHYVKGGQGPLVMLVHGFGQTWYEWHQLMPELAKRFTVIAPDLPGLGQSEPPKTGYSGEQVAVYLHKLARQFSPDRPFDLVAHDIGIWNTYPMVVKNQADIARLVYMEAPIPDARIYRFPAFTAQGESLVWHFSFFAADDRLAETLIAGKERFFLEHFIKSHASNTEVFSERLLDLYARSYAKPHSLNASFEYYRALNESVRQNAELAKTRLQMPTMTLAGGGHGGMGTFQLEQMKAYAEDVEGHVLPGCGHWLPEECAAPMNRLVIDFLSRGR

| Compound | IC50 (Cif [1]; Table 17 (R6-R9 series)) [µM] | inhibition at 10 µM (Cif [2]) [%] | inhibition at 10 µM (Cif [3]; [4]) [%] | inhibition at 10 µM (Cif [3]; [5]) [%] | inhibition at 10 µM (Cif [3]; [6]) [%] | inhibition at 10 µM (Cif [3]; [7]) [%] | inhibition at 10 µM (Cif [3]; [8]) [%] | inhibition at 10 µM (Cif [3]; [9]) [%] | inhibition at 10 µM (Cif [3]; [10]) [%] | further results |
| --- | --- | --- | --- | --- | --- | --- | --- | --- | --- | --- |
| CCOC(=O)CC(=O)Nc1cc(Br)c(Oc2cccc(C(C)C)c2)c(Br)c1 [Compound 1g] | > 50 | – | – | – | – | – | – | – | – | Cif inhibitory activity at 50 μM (Cif [1]): fail to show inhibitory activity |
| CCOC(=O)CC(=O)Nc1cc(Br)c(Oc2ccc(OC)c(C(C)C)c2)c(Br)c1 [Compound 1h] | > 50 | – | – | – | – | – | – | – | – | Cif inhibitory activity at 50 μM (Cif [1]): fail to show inhibitory activity |
| CCOC(=O)CC(=O)Nc1cc(Cl)c(Oc2ccc(O)c(C(C)C)c2)c(Cl)c1 [Compound 1i] | 3.8 | – | – | – | – | – | – | – | – | – |
| CCOC(=O)CC(=O)Nc1ccc(Oc2ccc(O)c(C(C)C)c2)c(Cl)c1 [Compound 1j] | 11.6 | – | – | – | – | – | – | – | – | – |
| CCOC(=O)CC(=O)Nc1cc(Cl)c(Oc2ccc(O)cc2)c(Cl)c1 [Compound 1k] | > 50 | – | – | – | – | – | – | – | – | Cif inhibitory activity at 50 μM (Cif [1]): showed no inhibition |
| CCOC(=O)CC(=O)Nc1cc(Cl)c(Oc2ccc(O)c(Br)c2)c(Cl)c1 [Compound 1l] | 4.9 | – | – | – | – | – | – | – | – | – |
| CCOC(=O)CC(=O)Nc1cc(Cl)c(Oc2ccc(O)c(I)c2)c(Cl)c1 [Compound 1m] | 3.8 | – | – | – | – | – | – | – | – | – |
| CCOC(=O)CC(=O)Nc1cc(Cl)c(Oc2ccc(O)c(C(F)(F)F)c2)c(Cl)c1 [Compound 1n] | 3 | – | – | – | – | – | – | – | – | – |
| C#Cc1cc(Oc2c(Cl)cc(NC(=O)CC(=O)OCC)cc2Cl)ccc1O [Compound 1p] | 2.9 | – | – | – | – | – | – | – | – | – |
| CCOC(=O)CC(=O)Nc1cc(Cl)c(Oc2ccc(O)cc2Br)c(Cl)c1 [Compound 1q] | 29.3 | – | – | – | – | – | – | – | – | – |
| CCC(=O)Nc1cc(Cl)c(Oc2ccc(O)c(-c3ccc(C(=O)O)cc3)c2)c(Cl)c1 [Compound 8b] | – | – | – | – | – | – | – | – | – | IC50 (Cif [1]; Table 18 (biphenyl R series)): 10.5 µM |
| CCC(=O)Nc1cc(Cl)c(Oc2ccc(O)c(-c3cccc(C(N)=O)c3)c2)c(Cl)c1 [Compound 8d] | – | – | – | – | – | – | – | – | – | IC50 (Cif [1]; Table 18 (biphenyl R series)): 0.46 µM |
| CCC(=O)Nc1cc(Cl)c(Oc2ccc(O)c(-c3ccc(C#N)cc3)c2)c(Cl)c1 [Compound 8e] | – | – | – | – | – | – | – | – | – | IC50 (Cif [1]; Table 18 (biphenyl R series)): 11.9 µM |
| CCC(=O)Nc1cc(Cl)c(Oc2ccc(O)c(-c3cccc(C#N)c3)c2)c(Cl)c1 [Compound 8f] | – | – | – | – | – | – | – | – | – | IC50 (Cif [1]; Table 18 (biphenyl R series)): 0.58 µM |
| CCC(=O)Nc1cc(Cl)c(Oc2ccc(O)c(-c3ccc(C(=O)NC)cc3)c2)c(Cl)c1 [Compound 8g] | – | – | – | – | – | – | – | – | – | IC50 (Cif [1]; Table 18 (biphenyl R series)): 1.7 µM |
| CCC(=O)Nc1cc(Cl)c(Oc2ccc(O)c(-c3ccc(NC(N)=O)cc3)c2)c(Cl)c1 [Compound 8i] | – | – | – | – | – | – | – | – | – | IC50 (Cif [1]; Table 18 (biphenyl R series)): 0.29 µM |
| CC(=O)[C@H]1CC[C@H]2[C@@H]3CC=C4C[C@@H](OC(=O)CCC(=O)O)CC[C@]4(C)[C@H]3CC[C@]12C [Pregnenolone succinate] | – | – | – | – | – | – | – | – | – | % Inhibition (Cif [2]): 34%; % Inhibition, Mean ± SD (Cif [3]): 12 ± 4%; % Inhibition, plate 1 (Cif [3]): 6%; % Inhibition, plate 2 (Cif [3]): 12%; % Inhibition, plate 3 (Cif [3]): 8%; % Inhibition, plate 4 (Cif [3]): 13%; % Inhibition, plate 5 (Cif [3]): 17%; % Inhibition, plate 6 (Cif [3]): 15% |
| C=CC1=C(C)c2cc3[nH]c(cc4nc(cc5[nH]c(cc1n2)c(C)c5CCC(=O)O)C(CCC(=O)O)=C4C)c(C)c3C=C [Protoporphyrin ix] | – | 46 | 20 ± 7 | 12 | 16 | 21 | 18 | 28 | 29 | – |
| N#C[C@@H]1C[C@@H]2C[C@@H]2N1C(=O)[C@@H](N)C12CC3CC(CC(O)(C3)C1)C2 [Saxagliptin] | – | 35 | 5 ± 4 | 5 | 0 | 6 | 6 | 11 | 3 | – |
| CCCCCCCCCCCCCCOS(=O)(=O)O [Sodium tetradecyl sulfate] | – | 78 | 9 ± 4 | 9 | 4 | 12 | 12 | 13 | 5 | – |
| Nc1ccc(S(=O)(=O)Nc2ncccn2)cc1 [Sulfadiazine] | – | 42 | 23 ± 4 | 23 | 24 | 24 | 26 | 28 | 15 | – |
| C=C(NC(=O)C(=C)NC(=O)c1csc(C2=N[C@@H]3c4csc(n4)[C@H]4NC(=O)c5csc(n5)[C@H]([C@](C)(O)[C@@H](C)O)NC(=O)[C@H]5CSC(=N5)/C(=C/C)NC(=O)[C@H]([C@@H](C)O)NC(=O)c5csc(n5)[C@]3(CC2)NC(=O)[C@H](C)NC(=O)C(=C)NC(=O)[C@H](C)NC(=O)[C@H]([C@@H](C)CC)N[C@@H]2C=Cc3c([C@H](C)O)cc(nc3[C@H]2O)C(=O)O[C@@H]4C)n1)C(N)=O [Thiostrepton] | – | 46 | 28 ± 12 | 14 | 15 | 25 | 27 | 43 | 42 | – |
| CCN(CC)CCOc1ccc2c(c1)C(=O)c1cc(OCCN(CC)CC)ccc1-2 [Tilorone] | – | 36 | 6 ± 4 | 4 | 5 | 5 | 11 | 10 | 0 | – |
| NC[C@H]1O[C@H](O[C@H]2[C@H](O)[C@@H](O[C@H]3O[C@H](CO)[C@@H](O)[C@H](N)[C@H]3O)[C@H](N)C[C@@H]2N)[C@H](N)C[C@@H]1O [Tobramycin] | – | 40 | -8 ± 7 | -5 | -7 | -5 | -12 | 0 | -21 | – |
| CN(C)CCOc1ccc(/C(=C(/CCCl)c2ccccc2)c2ccccc2)cc1 [Toremiphene citrate] | – | 31 | 10 ± 4 | 3 | 7 | 13 | 12 | 15 | 11 | – |
| Nc1nc(N)c2nc(-c3ccccc3)c(N)nc2n1 [Triamterene] | – | 35 | 19 ± 5 | 15 | 17 | 18 | 21 | 28 | 16 | – |
| CN(C)CCCN1c2ccccc2Sc2ccc(C(F)(F)F)cc21 [Triflupromazine hydrochloride] | – | 33 | 2 ± 6 | 4 | 10 | -2 | 1 | 8 | -6 | – |
| O=C(CCCCCCC(=O)Nc1ccccc1)NO [Vorinostat] | – | 35 | 13 ± 6 | 5 | 13 | 8 | 14 | 18 | 22 | – |
| CC(=O)CC(c1ccccc1)c1c(O)c2ccccc2oc1=O (centres unmarked) [Warfarin] | – | 32 | 15 ± 3 | 12 | 12 | 17 | 15 | 20 | 17 | – |
| Candicidin | – | – | – | – | – | – | – | – | – | % Inhibition (Cif [2]): 41%; % Inhibition, Mean ± SD (Cif [3]): 15 ± 7%; % Inhibition, plate 1 (Cif [3]): 3%; % Inhibition, plate 2 (Cif [3]): 13%; % Inhibition, plate 3 (Cif [3]): 17%; % Inhibition, plate 4 (Cif [3]): 19%; % Inhibition, plate 5 (Cif [3]): 23%; % Inhibition, plate 6 (Cif [3]): 18% |

Source: patent publication US10322118B2, “Compounds and methods for inhibiting Cif virulence factor” (priority 2012, dated 2019)
